Results reported in patent US20240116985A1, “STAPLED PEPTIDES AND METHODS THEREOF” (priority 2020, published 2024).

Legend:
[1] = target: T1, full-length beta-Catenin (Uniprot ID P35222) (Homo sapiens, UniProt P35222); assay: Fluorescence polarization IC50 (beta-catenin / 5FAM-TCF4 10-53 competition); assay type: binding; conditions: fluorescence polarization; read-out: beta-Catenin FP IC50
T1 construct: 10 nM full-length beta-Catenin (Uniprot ID P35222)
T1 sequence (P35222 1-781): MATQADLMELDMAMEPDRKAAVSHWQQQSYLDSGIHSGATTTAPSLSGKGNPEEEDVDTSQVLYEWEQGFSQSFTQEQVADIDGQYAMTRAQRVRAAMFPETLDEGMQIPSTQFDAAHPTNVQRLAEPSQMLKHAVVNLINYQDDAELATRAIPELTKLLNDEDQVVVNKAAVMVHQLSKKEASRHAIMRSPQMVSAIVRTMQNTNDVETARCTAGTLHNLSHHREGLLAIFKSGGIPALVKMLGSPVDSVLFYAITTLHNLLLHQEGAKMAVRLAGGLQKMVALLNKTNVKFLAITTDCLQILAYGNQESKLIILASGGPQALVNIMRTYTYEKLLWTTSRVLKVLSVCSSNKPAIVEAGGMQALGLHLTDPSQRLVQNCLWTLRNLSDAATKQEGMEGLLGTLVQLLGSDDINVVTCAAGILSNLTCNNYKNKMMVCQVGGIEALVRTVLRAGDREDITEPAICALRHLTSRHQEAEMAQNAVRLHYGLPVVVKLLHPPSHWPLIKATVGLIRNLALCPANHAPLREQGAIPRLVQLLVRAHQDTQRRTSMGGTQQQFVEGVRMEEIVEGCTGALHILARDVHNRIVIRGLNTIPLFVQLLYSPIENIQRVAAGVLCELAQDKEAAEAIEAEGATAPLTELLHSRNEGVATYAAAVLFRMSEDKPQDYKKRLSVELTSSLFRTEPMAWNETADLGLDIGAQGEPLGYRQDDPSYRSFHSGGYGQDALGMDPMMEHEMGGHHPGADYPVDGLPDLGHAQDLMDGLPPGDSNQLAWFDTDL

[2] = target: T2, beta-catenin/TCF4 engagement (Homo sapiens, UniProt P35222); assay: Nano-BRET target engagement assay (B-cat-Halo & TCF4-Luc in HEK293 cells); assay type: cell-based; conditions: read-out: NanoBRET Abs IC50
T2 construct: expressed in transfected cells; host or cells: HEK293
T2 sequence (P35222 1-781): T1 sequence (P35222 1-781)

| Compound | IC50 [1] [nM] | IC50 [2] [nM] |
| --- | --- | --- |
| CC(=O)N1CCC[C@]12CC=CCCCC1(CCCC=CCCCOC(=O)N3CC[C@@](C(=O)N[C@@H](Cc4ccccc4)C(=O)N[C@@H](Cc4csc5ccccc45)C(=O)N[C@@H](CCO)C(N)=O)(C3)NC(=O)[C@H](CCCCNC(C)C)NC(=O)[C@H](Cc3ccccc3)NC(=O)[C@H](C)NC(=O)[C@H](CCCCNC(C)C)NC(=O)[C@H](CCC(N)=O)NC(=O)[C@H](CC(=O)O)NC1=O)NC(=O)[C@H](CC1CCCCC1)NC(=O)[C@H](CC(N)=O)NC2=O (stereo partly drawn) [I-2102, Ac-PL3-Asn-Cha-B5-Asp-Gln-iPrLys-Ala-Phe-iPrLys-PyrS2-Phe-BztA-Hse-NH2] | 273 | > 20000 |
| CC(=O)N1CCC[C@]12CC=CCCCC1(CCCC=CCCCOC(=O)N3CC[C@@](C(=O)N[C@@H](Cc4ccccc4)C(=O)N[C@@H](Cc4csc5ccccc45)C(=O)N[C@@H](Cc4c[nH]cn4)C(N)=O)(C3)NC(=O)[C@H](CC(N)=O)NC(=O)[C@H](Cc3ccccc3)NC(=O)[C@H](C)NC(=O)[C@H](CCCCNC(C)C)NC(=O)[C@H](CCC(N)=O)NC(=O)[C@H](CC(=O)O)NC1=O)NC(=O)[C@H](CC1CCCCC1)NC(=O)[C@H](CC(N)=O)NC2=O (stereo partly drawn) [I-2109, Ac-PL3-Asn-Cha-B5-Asp-Gln-iPrLys-Ala-Phe-Asn-PyrS2-Phe-BztA-His-NH2] | 136 | > 20000 |
| CC(=O)N1CCC[C@]12CC=CCCCC1(CCCC=CCCCOC(=O)N3CC[C@@](C(=O)N[C@@H](Cc4ccccc4)C(=O)N[C@@H](Cc4csc5ccccc45)C(=O)N[C@@H](CCCCN)C(N)=O)(C3)NC(=O)[C@H](CC(N)=O)NC(=O)[C@H](Cc3ccccc3)NC(=O)[C@H](C)NC(=O)[C@H](CCCCNC(C)C)NC(=O)[C@H](CCC(N)=O)NC(=O)[C@H](CC(=O)O)NC1=O)NC(=O)[C@H](CC1CCCCC1)NC(=O)[C@H](CC(N)=O)NC2=O (stereo partly drawn) [I-2110, Ac-PL3-Asn-Cha-B5-Asp-Gln-iPrLys-Ala-Phe-Asn-PyrS2-Phe-BztA-Lys-NH2] | 88 | > 20000 |
| CC(=O)N1CCC[C@]12CC=CCCCC1(CCCC=CCCCOC(=O)N3CC[C@@](C(=O)N[C@@H](Cc4ccccc4)C(=O)N[C@@H](Cc4csc5ccccc45)C(=O)N[C@@H](CC(N)=O)C(N)=O)(C3)NC(=O)[C@H](CC(N)=O)NC(=O)[C@H](Cc3ccccc3)NC(=O)[C@H](C)NC(=O)[C@H](CCCCNC(C)C)NC(=O)[C@H](CCC(N)=O)NC(=O)[C@H](CC(=O)O)NC1=O)NC(=O)[C@H](CC1CCCCC1)NC(=O)[C@H](CC(N)=O)NC2=O (stereo partly drawn) [I-2111, Ac-PL3-Asn-Cha-B5-Asp-Gln-iPrLys-Ala-Phe-Asn-PyrS2-Phe-BztA-Asn-NH2] | 180 | > 20000 |
| CC(=O)N1CCC[C@]12CC=CCCCC1(CCCC=CCCCOC(=O)N3CC[C@@](C(=O)N[C@@H](Cc4ccsc4)C(=O)N[C@@H](Cc4csc5ccccc45)C(=O)N[C@@H](CCC(N)=O)C(N)=O)(C3)NC(=O)[C@H](CC(N)=O)NC(=O)[C@H](Cc3cccc(C(=O)O)c3)NC(=O)[C@H](C)NC(=O)[C@H](C)NC(=O)[C@H](CCc3ccc(O)cc3)NC(=O)[C@H](CC(=O)O)NC1=O)NC(=O)[C@H](CC(C)(C)C)NC(=O)[C@H](CC(=O)O)NC2=O (stereo partly drawn) [I-2114, Ac-PL3-Asp-Npg-B5-Asp-hTyr-Ala-Ala-3COOHF-Asn-PyrS2-3Thi-BztA-Gln-NH2] | 32 | > 20000 |
| CC(=O)N1CCC[C@]12CC=CCCCC1(CCCC=CCCCOC(=O)N3CC[C@@](C(=O)N[C@@H](Cc4ccsc4)C(=O)N[C@@H](Cc4csc5ccccc45)C(=O)N[C@@H](CCC(N)=O)C(N)=O)(C3)NC(=O)[C@H](CC(N)=O)NC(=O)[C@H](Cc3cccc(C(=O)O)c3)NC(=O)[C@H](C)NC(=O)[C@H](C)NC(=O)[C@H](CCc3ccc(O)cc3)NC(=O)[C@H](CC(=O)O)NC1=O)NC(=O)[C@H](CC(C)(C)C)NC(=O)[C@H](CC(=O)O)NC2=O (stereo partly drawn) [I-2115, Ac-PL3-Asp-Npg-B5-Asp-hTyr-Ala-Ala-3COOHF-Asn-PyrS2-3Thi-BztA-Gln-NH2] | 29 | > 20000 |
| CC(=O)N1CCC[C@]12CC=CCCCC1(CCCC=CCCCOC(=O)N3CC[C@@](C(=O)N[C@@H](Cc4ccsc4)C(=O)N[C@@H](Cc4csc5ccccc45)C(=O)N[C@@H](CCC(N)=O)C(N)=O)(C3)NC(=O)[C@H](CCO)NC(=O)[C@H](Cc3cccc(C(=O)O)c3)NC(=O)[C@H](C)NC(=O)[C@H](C)NC(=O)[C@H](CCc3ccc(O)cc3)NC(=O)[C@H](CC(=O)O)NC1=O)NC(=O)[C@H](CC(C)(C)C)NC(=O)[C@H](CC(=O)O)NC2=O (stereo partly drawn) [I-2116, Ac-PL3-Asp-Npg-B5-Asp-hTyr-Ala-Ala-3COOHF-Hse-PyrS2-3Thi-BztA-Gln-NH2] | 19 | 33400 |
| CC(=O)N1CCC[C@]12CC=CCCCC1(CCCC=CCCCOC(=O)N3CC[C@@](C(=O)N[C@@H](Cc4ccsc4)C(=O)N[C@@H](Cc4csc5ccccc45)C(=O)N[C@@H](CCC(N)=O)C(N)=O)(C3)NC(=O)[C@H](CC(N)=O)NC(=O)[C@H](Cc3cccc(C(=O)O)c3)NC(=O)[C@H](C)NC(=O)[C@H](C)NC(=O)[C@H](Cc3c[nH]cn3)NC(=O)[C@H](CC(=O)O)NC1=O)NC(=O)[C@H](CC(C)(C)C)NC(=O)[C@H](CC(=O)O)NC2=O (stereo partly drawn) [I-2118, Ac-PL3-Asp-Npg-B5-Asp-His-Ala-Ala-3COOHF-Asn-PyrS2-3Thi-BztA-Gln-NH2] | 21 | > 20000 |

The remaining lines, values ahead:

| IC50 [1] [nM] | IC50 [2] [nM] | Compound |
| --- | --- | --- |
| 78 | 10500 | CC(=O)N1CCC[C@]12CC=CCCCC1(CCCC=CCCCOC(=O)N3CC[C@@](C(=O)N[C@@H](Cc4ccccc4C(F)(F)F)C(=O)N[C@@H](Cc4csc5ccccc45)C(=O)N[C@H](C)C(N)=O)(C3)NC(=O)[C@H](Cc3ccccc3)NC(=O)[C@H](Cc3ccccc3)NC(=O)[C@H](C)NC(=O)[C@H](C)NC(=O)[C@H](Cc3cccc(C(=O)O)c3)NC(=O)[C@H](CC(=O)O)NC1=O)NC(=O)[C@H](CC(C)(C)C)NC(=O)[C@H](CC(=O)O)NC2=O (stereo partly drawn) [I-2095, Ac-PL3-Asp-Npg-B5-Asp-3COOHF-Ala-Ala-Phe-Phe-PyrS2-2F3MeF-BztA-dAla-NH2] |
| 79 | > 20000 | CC(=O)N1CCC[C@]12CC=CCCCC1(CCCC=CCCCOC(=O)N3CC[C@@](C(=O)N[C@@H](Cc4ccsc4)C(=O)N[C@@H](Cc4csc5ccccc45)C(=O)N[C@@H](C)C(N)=O)(C3)NC(=O)[C@H](CC(C)C)NC(=O)[C@H](Cc3ccccc3)NC(=O)[C@@H](C)NC(=O)[C@H](C)NC(=O)[C@H](Cc3cccc(C(=O)O)c3)NC(=O)[C@H](CC(=O)O)NC1=O)NC(=O)[C@H](CC(C)(C)C)NC(=O)[C@H](CC(=O)O)NC2=O (stereo partly drawn) [I-2096, Ac-PL3-Asp-Npg-B5-Asp-3COOHF-Ala-dAla-Phe-Leu-PyrS2-3Thi-BztA-Ala-NH2] |
| 23 | 22300 | CC(=O)N1CCC[C@]12CC=CCCCC1(CCCC=CCCCOC(=O)N3CC[C@@](C(=O)N[C@@H](Cc4ccsc4)C(=O)N[C@@H](Cc4csc5ccccc45)C(=O)N[C@@H](C)C(N)=O)(C3)NC(=O)[C@H](CC(C)C)NC(=O)[C@H](Cc3ccccc3)NC(=O)[C@@H](C)NC(=O)[C@H](C)NC(=O)[C@H](Cc3cccc(C(=O)O)c3)NC(=O)[C@H](CC(=O)O)NC1=O)NC(=O)[C@H](CC(C)(C)C)NC(=O)[C@H](CC(=O)O)NC2=O (stereo partly drawn) [I-2097, Ac-PL3-Asp-Npg-B5-Asp-3COOHF-Ala-dAla-Phe-Leu-PyrS2-3Thi-BztA-Ala-NH2] |
| 260 | > 20000 | CC(=O)N1CCC[C@]12CC=CCCCC1(CCCC=CCCCOC(=O)N3CC[C@@](C(=O)N[C@@H](Cc4ccccc4C(F)(F)F)C(=O)N[C@@H](Cc4csc5ccccc45)C(=O)N[C@@H](C)C(N)=O)(C3)NC(=O)[C@H](CC(C)C)NC(=O)[C@H](Cc3ccccc3)NC(=O)[C@@H](C)NC(=O)[C@H](C)NC(=O)[C@H](Cc3cccc(C(=O)O)c3)NC(=O)[C@H](CC(=O)O)NC1=O)NC(=O)[C@H](CC(C)(C)C)NC(=O)[C@H](CC(=O)O)NC2=O (stereo partly drawn) [I-2098, Ac-PL3-Asp-Npg-B5-Asp-3COOHF-Ala-dAla-Phe-Leu-PyrS2-2F3MeF-BztA-Ala-NH2] |
| 86 | > 20000 | CC(=O)N1CCC[C@]12CC=CCCCC1(CCCC=CCCCOC(=O)N3CC[C@@](C(=O)N[C@@H](Cc4ccsc4)C(=O)N[C@@H](Cc4csc5ccccc45)C(=O)N[C@H](C)C(N)=O)(C3)NC(=O)[C@H](CC(C)C)NC(=O)[C@H](Cc3ccccc3)NC(=O)[C@@H](C)NC(=O)[C@H](C)NC(=O)[C@H](Cc3cccc(C(=O)O)c3)NC(=O)[C@H](CC(=O)O)NC1=O)NC(=O)[C@H](CC(C)(C)C)NC(=O)[C@H](CC(=O)O)NC2=O (stereo partly drawn) [I-2100, Ac-PL3-Asp-Npg-B5-Asp-3COOHF-Ala-dAla-Phe-Leu-PyrS2-3Thi-BztA-dAla-NH2] |
| 19 | > 20000 | CC(=O)N1CCC[C@]12CC=CCCCC1(CCCC=CCCCOC(=O)N3CC[C@@](C(=O)N[C@@H](Cc4ccsc4)C(=O)N[C@@H](Cc4csc5ccccc45)C(=O)N[C@@H](CCC(N)=O)C(N)=O)(C3)NC(=O)[C@H](CCO)NC(=O)[C@H](Cc3cccc(C(=O)O)c3)NC(=O)[C@H](C)NC(=O)[C@H](C)NC(=O)[C@H](CCc3ccc(O)cc3)NC(=O)[C@H](CC(=O)O)NC1=O)NC(=O)[C@H](CC(C)(C)C)NC(=O)[C@H](CC(=O)O)NC2=O (stereo partly drawn) [I-2117, Ac-PL3-Asp-Npg-B5-Asp-hTyr-Ala-Ala-3COOHF-Hse-PyrS2-3Thi-BztA-Gln-NH2] |
